Article PMC5267515, “In Vitro and Clinical Evaluations of the Drug-Drug Interaction Potential of a Metabotropic Glutamate 2/3 Receptor Agonist Prodrug with Intestinal Peptide Transporter 1” (Drug Metabolism and Disposition, 2017)
Entries after “also recorded” stand apart in the source; their conditions may differ. Like-named read-outs stand apart in the source and are kept apart here. Blank lines part the entries; values can stand above or below the molecule they belong to. Non-standard residues stand in square brackets, D forms with d. Residues, ends and D or L forms follow the SMILES beside them. Sar = CNCC(=O)O

Assays:
PEPT1 [1] = target: T1, PEPT1 (Homo sapiens, UniProt P46059); design: expressed in transfected cells; host or cells: HeLa cells (ATCC), transiently transfected with Fugene 6, pcDNA3.1 vector; method as in Zhang et al. (2004); conditions: Gly-Sar 50 μM; ref Zhang et al. (2004); read-out: IC50 against Gly-Sar; cited from earlier work
T1 sequence (P46059 1-708): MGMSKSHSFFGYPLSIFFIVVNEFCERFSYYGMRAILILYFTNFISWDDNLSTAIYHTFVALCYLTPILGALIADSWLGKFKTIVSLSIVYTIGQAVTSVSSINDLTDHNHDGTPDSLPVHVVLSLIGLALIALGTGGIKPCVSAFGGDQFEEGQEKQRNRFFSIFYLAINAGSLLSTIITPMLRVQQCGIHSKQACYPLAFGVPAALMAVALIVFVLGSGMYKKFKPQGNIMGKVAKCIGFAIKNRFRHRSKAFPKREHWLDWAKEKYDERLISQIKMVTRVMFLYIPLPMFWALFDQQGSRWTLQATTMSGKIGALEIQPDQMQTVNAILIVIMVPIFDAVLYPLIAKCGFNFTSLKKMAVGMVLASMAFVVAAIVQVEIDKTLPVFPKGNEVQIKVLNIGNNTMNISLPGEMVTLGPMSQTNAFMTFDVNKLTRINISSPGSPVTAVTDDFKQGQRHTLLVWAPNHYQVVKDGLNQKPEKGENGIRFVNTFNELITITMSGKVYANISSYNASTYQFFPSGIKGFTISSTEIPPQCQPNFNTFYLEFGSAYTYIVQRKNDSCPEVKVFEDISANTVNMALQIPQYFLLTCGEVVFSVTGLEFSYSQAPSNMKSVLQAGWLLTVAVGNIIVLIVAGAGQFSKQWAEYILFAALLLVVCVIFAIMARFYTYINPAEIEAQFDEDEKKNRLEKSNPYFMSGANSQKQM

PEPT1 [2] = target: T1, PEPT1; experiment: Inhibition of PEPT1-mediated [14C]LY2140023 uptake in transfected HeLa cells; conditions: for IC50: 10 μM [14C]LY2140023
Description: Briefly, cells were seeded at a density of 65,000 cells/ml in 24-well plates. After achieving 50 to 80% confluency, cells were transfected with SLC15A1, gene for PEPT1 (accession number NM_005073) inserted in pcDNA3.1 or pcDNA3.1 empty vector (Invitrogen) using Fugene 6 (Roche, Indianapolis, IN) following the manufacturer’s protocol.
The solubility of compounds at these concentrations was checked by using a fiber-optic light source.
where [I] is an inhibitor concentration in micromoles. Top is the highest % activity in the absence of inhibitor, and S is the slope factor.

PEPT1 [3] = target: T1, PEPT1; design: expressed in transfected cells; method as in Han, 1999; conditions: CHO cells transfected with PEPT1, ref Han, 1999, cited from earlier work
PEPT1 [4] = target: T1, PEPT1; experiment: System validation: proton- and concentration-dependent uptake of [14C]Gly-Sar in PEPT1 transfected HeLa cells; type: in vitro ADME; design: expressed in transfected cells; host or cells: HeLa cells (ATCC), transiently transfected with Fugene 6, pcDNA3.1 vector
Description: (§1) Assessment of both the proton-dependent uptake ([Liang et al., 1995]) and the concentration-dependent uptake of [^14C]Gly-Sar by the transiently transfected HeLa cells was used to validate the in vitro system. For proton-dependent uptake, [^14C]Gly-Sar was measured 24 hour post transfection at either pH 6.0 or 7.5. PEPT1- and empty vector-transfected cells were incubated with [^14C]Gly-Sar (50 µM) for 5 minutes at room temperature. Cells transfected with empty pcDNA3.1 vector were used to measure the passive diffusion of [^14C]Gly-Sar. For concentration-dependent uptake, transfected cells were incubated with [^14C]Gly-Sar at concentrations from 50 to 5000 µM for 3 minutes at room temperature. For both proton- and concentration-dependent experiments, cells were washed three times with ice-cold phosphate-buffered saline after incubation with Gly-Sar to stop uptake and then lysed with 0.3 ml 1% triton X-100 in phosphate-buffered saline for 30 minutes at room temperature. Scintillation counting was conducted to determine radioactivity, and protein levels were determined by the bicinchoninic acid method ([Smith et al., 1985]).

PEPT1 [5] = target: T1, PEPT1; experiment: Proton- and time-dependent transport of prodrug and active moiety in PEPT1 transfected HeLa cells; type: in vitro ADME; design: expressed in transfected cells; host or cells: HeLa cells (ATCC), transiently transfected with Fugene 6, pcDNA3.1 vector; conditions: 30 μM, pH 6.0 or 7.5, PEPT1 vs empty vector transfected HeLa cells
Description: The PEPT1 mediated [^14C]LY2140023 (30 μM) and [^14C]LY404039 (30 μM) uptake was measured in cells 24 hours post transfection. The time-dependent transport of LY2140023 and LY404039 was conducted using buffers prepared at either pH 6.0 or 7.5 as described above. The cells transfected with empty pcDNA3.1 vector were used to measure the passive diffusion of LY2140023 and LY404039. The cells were incubated for 1, 2.5, 5, 7.5, 10, and 15 minutes at room temperature and were washed, lysed, and contents quantified as described above.

MDCK-MDR1 cells = test system: MDCK-MDR1 cells; design: method as in data on file, Eli Lilly and Company; conditions: ref data on file, Eli Lilly and Company; cited from earlier work
[6] = Clinical drug interaction study (H8Y-MC-HBCF), plasma and urine pharmacokinetics in healthy subjects; conditions: for Vd/F: Vz/F; for Tmax: median (min–max)
Description: For the active moiety, the LLQ was 50 ng/ml and the ULQ was 5000 ng/ml.
Actual sampling times were used in the analyses with the exception of predose times, which were set to 0 hour. Area under the curve (AUC) values were determined using log-linear trapezoid methods.
The fraction of the dose excreted (fe) was also determined. For the active moiety dose, the 0.64 correction factor was used as described previously. […] The parameters were log transformed before analysis. The least squares means (LSM) for each treatment and the 90% confidence intervals (CI) for the difference in means between test and reference treatment groups were estimated from the model and back transformed from the log scale to provide estimates of the geometric means and 90% CIs for the ratio of geometric means. The analysis of tmax was based on a nonparametric method. Medians and range for treatments and the P value computed for comparison of median values using Wilcoxon signed rank test are presented.

[7] = substrate: CN(CC(=O)O)C(=O)CN; experiment: System validation: proton- and concentration-dependent uptake of [14C]Gly-Sar in PEPT1 transfected HeLa cells; type: in vitro ADME, human; conditions: other: 50 μM to 5 mM, pH 6.0
Description: as §1

[8] = substrate: CSCC[C@H](N)C(=O)N[C@@]1(C(=O)O)CS(=O)(=O)[C@H]2[C@H](C(=O)O)[C@H]21; experiment: Concentration-dependent uptake of [14C]LY2140023 in PEPT1 transfected HeLa cells (kinetic parameters); type: in vitro ADME, human
Description: The concentration dependent uptake of [^14C]LY2140023, ranging from 5 up to 149 μM, was determined in PEPT1 transfected HeLa cells with 2- to 3-minute incubation at room temperature. The mean passive diffusion of prodrug at each concentration was obtained in parallel experiments in HeLa cells transfected with pcDNA3.1 empty vector and subtracted from the uptake mediated by PEPT1. The corrected data were fitted by WinNonlin Professional, version 5.0.1 or 5.3 (Certara, L.P., St. Louis, MO). The kinetic parameters of the prodrug mediated by PEPT1 were estimated by utilizing the following equation: [drawing 1] where S is the substrate concentration (μM), Vmax is the maximum uptake rate (pmol/min/mg), and Km is the concentration where uptake reaches a half of Vmax (μM).

[9] = IC50 against LY2140023, first of two separate experiments
[10] = IC50 against LY2140023, second of two separate experiments
[11] = Mean IC50 against LY2140023, mean of two separate experiments
[12] = LY2140023 + Valacyclovir vs LY2140023 Alone
[13] = other: experiment 1, 5 to 146 μM LY2140023, PEPT1 transfected HeLa cells, parameter ± S.E.M.
[14] = other: experiment 2, 6.4 to 149 μM LY2140023, PEPT1 transfected HeLa cells, parameter ± S.E.M.

Molecule: N[C@@H](Cc1ccc(O)c(O)c1)C(=O)O [L- DOPA, L-DOPA]
IC50 (PEPT1 [1]): 14.9 ± 2.45 mM
inhibition at 25000 µM (PEPT1 [2]; HeLa, read-out: inhibition of [14C]LY2140023 uptake): < 50%
IC50 (PEPT1 [2]; [9]): 25.3 ± 2.57 mM
IC50 (PEPT1 [2]; [10]): 26.5 ± 9.38 mM
IC50 (PEPT1 [2]; [11]): 25.9 mM

Molecule: N[C@@]1(C(=O)O)CS(=O)(=O)[C@H]2[C@H](C(=O)O)[C@H]21 [LY404039]
PEPT1 substrate status (PEPT1 [5]): is not a PEPT1 substrate; also recorded: not transported by PEPT1
passive permeability (MDCK-MDR1 cells): approximately 1 × 10^−6 cm/s
CL/F ([6]; LY2140023 80 mg + valacyclovir 1000 mg coadministered, geometric mean (CV%)): 20.5 (24) L/hour
AUC(0-∞) Ratio Test/Reference [6, 12]: 0.94
Cmax Ratio Test/Reference [6, 12]: 0.92
active moiety present at the first sampling time ([6]; after administration of the prodrug): 18 of 21 subjects
half-life ([6]; human, plasma, oral, 80 mg): 3.05 h
AUC(0-inf) ([6]; human, plasma, oral, 80 mg, AUC(0-∞) LS Geometric Mean, LY2140023 Alone (Reference)): 2670 ng·h/mL
AUC(0-inf) ([6]; human, plasma, oral, 80 mg, AUC(0-∞), single 80-mg dose of LY2140023 alone, geometric mean (CV%)): 2600 ng·h/mL
Cmax ([6]; human, plasma, oral, 80 mg, Cmax LS Geometric Mean, LY2140023 Alone (Reference)): 484 ng/mL
Cmax ([6]; human, plasma, oral, 80 mg, Cmax, single 80-mg dose of LY2140023 alone, geometric mean (CV%)): 477 ng/mL
Vd/F ([6]; human, plasma, oral, 80 mg, single 80-mg dose of LY2140023 alone, geometric mean (CV%)): 86.5 L
Tmax ([6]; human, plasma, oral, 80 mg, single 80-mg dose of LY2140023 alone): 4 h
AUC(0-inf) ([6]; human, plasma, oral, AUC(0-∞) LS Geometric Mean, LY2140023 + Valacyclovir (Test)): 2500 ng·h/mL
AUC(0-inf) ([6]; human, plasma, oral, AUC(0-∞), LY2140023 80 mg + valacyclovir 1000 mg coadministered, geometric mean (CV%)): 2490 ng·h/mL
Cmax ([6]; human, plasma, oral, Cmax LS Geometric Mean, LY2140023 + Valacyclovir (Test)): 447 ng/mL
Cmax ([6]; human, plasma, oral, Cmax, LY2140023 80 mg + valacyclovir 1000 mg coadministered, geometric mean (CV%)): 444 ng/mL
Vd/F ([6]; human, plasma, oral, LY2140023 80 mg + valacyclovir 1000 mg coadministered, geometric mean (CV%)): 92.2 L
Tmax ([6]; human, plasma, oral, LY2140023 80 mg + valacyclovir 1000 mg coadministered): 4 h
CL renal ([6]; human, urine and plasma, oral, 80 mg): 213 mL/min
CL/F ([6]; single 80-mg dose of LY2140023 alone, geometric mean (CV%)): 19.7 (16) L/hour

B1: PEPT1 (Homo sapiens) (protein)
chain: T1 sequence (P46059 1-708)
notes: expressed in transfected cells; host or cells: HeLa cells (ATCC), transiently transfected with Fugene 6, pcDNA3.1 vector
Km [7]: 427.9 µM
Vmax [7]: 3975.3 pmol/min/mg
Km ([8]; other: approximate value over experiments): 30 µM
Km [8, 13]: 28.66 ± 5.01 µM
Vmax [8, 13]: 0.000238 µmol/min/mg
Km [8, 14]: 29.98 ± 5.29 µM
Vmax [8, 14]: 0.000573 µmol/min/mg

Continued by falling IC50 (PEPT1 [2]; [9]), values first:

IC50 (PEPT1 [2]; [9]): 11 ± 2.64 mM
IC50 (PEPT1 [2]; [10]): 10.3 ± 0.42 mM
IC50 (PEPT1 [2]; [11]): 10.7 mM
Molecule: CCOC(=O)[C@H](CCc1ccccc1)N[C@@H](C)C(=O)N1CCC[C@H]1C(=O)O [Enalapril]
IC50 (PEPT1 [1]): 2.13 ± 0.36 mM

IC50 (PEPT1 [2]; [9]): 4.05 ± 0.44 mM
IC50 (PEPT1 [2]; [10]): 5.93 ± 1.47 mM
IC50 (PEPT1 [2]; [11]): 4.99 mM
Molecule: CC1=C(C(=O)O)N2C(=O)[C@@H](NC(=O)[C@H](N)c3ccc(O)cc3)[C@H]2SC1 [Cefadroxil]
IC50 (PEPT1 [1]): 1.88 ± 0.35 mM

IC50 (PEPT1 [2]; [9]): 1.77 ± 0.21 mM
IC50 (PEPT1 [2]; [10]): 1.56 ± 0.22 mM
IC50 (PEPT1 [2]; [11]): 1.67 mM
Molecule: NCC(=O)CCC(=O)O [ALA, 5-aminolevulinic acid]
IC50 (PEPT1 [1]): 0.78 ± 0.26 mM

IC50 (PEPT1 [2]; [9]): 1.29 ± 0.26 mM
IC50 (PEPT1 [2]; [10]): 0.69 ± 0.17 mM
IC50 (PEPT1 [2]; [11]): 0.99 mM
transport at pH 6.0 relative to pH 7.5 (PEPT1 [4]; [14C]Gly-Sar 50 µM, 5 minutes, PEPT1 transfected HeLa cells): approximately five
passive diffusion rate (PEPT1 [4]; control cells (empty pcDNA3.1 vector)): 0.0972 µL/min/mg
Molecule: CN(CC(=O)O)C(=O)CN [Gly-Sar, glycylsarcosine] (H-Gly-[Sar]-OH)
reported Vmax (PEPT1 [3]): 3517 pmol/min/mg
Km (PEPT1 [3]; read-out: reported Km): 500 µM
